Four compounds from PubChem BioAssay AID1259407 (Chemical Carcinogenesis Research Information System (CCRIS), 2018) can be followed below.

Activity calls are given as the source filed them. The rule behind the calls is not given here.

This series relates to CCRIS mutagenicity, Ames/micronucleus/aberration tests. Nature of the series: CCRIS mutagenicity studies.
Where [1] appears, read: Test System: AMES SALMONELLA TYPHIMURIUM, Strain/Indicator: TA98, Metabolic Activation: RAT, LIVER, S-9, AROCLOR 1254, Method: STANDARD PLATE.
The mark [2] stands for this setting: Test System: AMES SALMONELLA TYPHIMURIUM, Strain/Indicator: TA100, Metabolic Activation: NONE, Method: STANDARD PLATE.
Where [3] appears, read: Test System: AMES SALMONELLA TYPHIMURIUM, Strain/Indicator: TA100, Metabolic Activation: RAT, LIVER, S-9, AROCLOR 1254, Method: STANDARD PLATE.

As to `C=C(C)C`, the mutagenic call runs as follows: (Test System: AMES SALMONELLA TYPHIMURIUM, Strain/Indicator: TA97, Metabolic Activation: HAMSTER LIVER S-9, AROCLOR 1254 (10% OR 30%), Method: DESICCATOR) “inactive; negative”; (Test System: AMES SALMONELLA TYPHIMURIUM, Strain/Indicator: TA97, Metabolic Activation: NONE, Method: DESICCATOR) “inactive; negative”; (Test System: AMES SALMONELLA TYPHIMURIUM, Strain/Indicator: TA97, Metabolic Activation: RAT LIVER S-9, AROCLOR 1254 (10% OR 30%), Method: DESICCATOR) “inactive; negative”; (Test System: AMES SALMONELLA TYPHIMURIUM, Strain/Indicator: TA98, Metabolic Activation: HAMSTER LIVER S-9, AROCLOR 1254 (10% OR 30%), Method: DESICCATOR) “inactive; negative”; (Test System: AMES SALMONELLA TYPHIMURIUM, Strain/Indicator: TA98, Metabolic Activation: NONE) “inactive; negative”; (Test System: AMES SALMONELLA TYPHIMURIUM, Strain/Indicator: TA98, Metabolic Activation: NONE, Method: DESICCATOR) “inactive; negative”. The mutagenic call reads like this: (Test System: AMES SALMONELLA TYPHIMURIUM, Strain/Indicator: TA98, Metabolic Activation: NONE, Method: GAS EXPOSURE) “inactive; negative”; (Test System: AMES SALMONELLA TYPHIMURIUM, Strain/Indicator: TA98, Metabolic Activation: RAT LIVER S-9, AROCLOR 1254 (10% OR 30%), Method: DESICCATOR) “inactive; negative”; (Test System: AMES SALMONELLA TYPHIMURIUM, Strain/Indicator: TA98, Metabolic Activation: RAT LIVER S-9, PHENOBARBITAL AND BETA-NAPHTHOFLAVONE (40%), Method: GAS EXPOSURE) “inactive; negative”; (Test System: AMES SALMONELLA TYPHIMURIUM, Strain/Indicator: TA98, Metabolic Activation: RAT, LIVER, S-9, KC 500) “inactive; negative”; (Test System: AMES SALMONELLA TYPHIMURIUM, Strain/Indicator: TA100, Metabolic Activation: HAMSTER LIVER S-9, AROCLOR 1254 (10% OR 30%), Method: DESICCATOR) “inactive; negative”; (Test System: AMES SALMONELLA TYPHIMURIUM, Strain/Indicator: TA100, Metabolic Activation: NONE) “inactive; negative”. Moreover, the mutagenic call is “inactive; negative” (Test System: AMES SALMONELLA TYPHIMURIUM, Strain/Indicator: TA100, Metabolic Activation: NONE, Method: DESICCATOR); “inactive; negative” (Test System: AMES SALMONELLA TYPHIMURIUM, Strain/Indicator: TA100, Metabolic Activation: NONE, Method: FLASK ASSAY); “inactive; negative” (Test System: AMES SALMONELLA TYPHIMURIUM, Strain/Indicator: TA100, Metabolic Activation: NONE, Method: GAS EXPOSURE); “inactive; negative” (Test System: AMES SALMONELLA TYPHIMURIUM, Strain/Indicator: TA100, Metabolic Activation: RAT LIVER S-9, AROCLOR 1254 (10% OR 30%), Method: DESICCATOR); “inactive; negative” (Test System: AMES SALMONELLA TYPHIMURIUM, Strain/Indicator: TA100, Metabolic Activation: RAT LIVER S-9, PHENOBARBITAL AND BETA-NAPHTHOFLAVONE (40%), Method: GAS EXPOSURE); “inactive; negative” (Test System: AMES SALMONELLA TYPHIMURIUM, Strain/Indicator: TA100, Metabolic Activation: RAT, LIVER, S-9, KC 500). In addition, the mutagenic call by setting is: (Test System: AMES SALMONELLA TYPHIMURIUM, Strain/Indicator: TA102, Metabolic Activation: NONE, Method: FLASK ASSAY) “inactive; negative”; (Test System: AMES SALMONELLA TYPHIMURIUM, Strain/Indicator: TA1535, Metabolic Activation: HAMSTER LIVER S-9, AROCLOR 1254 (10% OR 30%), Method: DESICCATOR) “inactive; negative”; (Test System: AMES SALMONELLA TYPHIMURIUM, Strain/Indicator: TA1535, Metabolic Activation: NONE) “inactive; negative”; (Test System: AMES SALMONELLA TYPHIMURIUM, Strain/Indicator: TA1535, Metabolic Activation: NONE, Method: DESICCATOR) “inactive; negative”; (Test System: AMES SALMONELLA TYPHIMURIUM, Strain/Indicator: TA1535, Metabolic Activation: NONE, Method: FLASK ASSAY) “inactive; negative”; (Test System: AMES SALMONELLA TYPHIMURIUM, Strain/Indicator: TA1535, Metabolic Activation: NONE, Method: GAS EXPOSURE) “inactive; negative”. Moreover, the mutagenic call reads like this: (Test System: AMES SALMONELLA TYPHIMURIUM, Strain/Indicator: TA1535, Metabolic Activation: RAT LIVER S-9, AROCLOR 1254 (10% OR 30%), Method: DESICCATOR) “inactive; negative”; (Test System: AMES SALMONELLA TYPHIMURIUM, Strain/Indicator: TA1535, Metabolic Activation: RAT LIVER S-9, PHENOBARBITAL AND BETA-NAPHTHOFLAVONE (40%), Method: GAS EXPOSURE) “inactive; negative”; (Test System: AMES SALMONELLA TYPHIMURIUM, Strain/Indicator: TA1535, Metabolic Activation: RAT, LIVER, S-9, KC 500) “inactive; negative”; (Test System: AMES SALMONELLA TYPHIMURIUM, Strain/Indicator: TA1537, Metabolic Activation: NONE) “inactive; negative”; (Test System: AMES SALMONELLA TYPHIMURIUM, Strain/Indicator: TA1537, Metabolic Activation: NONE, Method: GAS EXPOSURE) “inactive; negative”; (Test System: AMES SALMONELLA TYPHIMURIUM, Strain/Indicator: TA1537, Metabolic Activation: RAT LIVER S-9, PHENOBARBITAL AND BETA-NAPHTHOFLAVONE (40%), Method: GAS EXPOSURE) “inactive; negative”. Moreover, the mutagenic call runs as follows: (Test System: AMES SALMONELLA TYPHIMURIUM, Strain/Indicator: TA1537, Metabolic Activation: RAT, LIVER, S-9, KC 500) “inactive; negative”; (Test System: AMES SALMONELLA TYPHIMURIUM, Strain/Indicator: TA1538, Metabolic Activation: NONE) “inactive; negative”; (Test System: AMES SALMONELLA TYPHIMURIUM, Strain/Indicator: TA1538, Metabolic Activation: RAT, LIVER, S-9, KC 500) “inactive; negative”; (Test System: E. COLI, Strain/Indicator: WP2 UVRA, Metabolic Activation: NONE) “inactive; negative”; (Test System: E. COLI, Strain/Indicator: WP2 UVRA, Metabolic Activation: RAT, LIVER, S-9, KC 500) “inactive; negative”; (Test System: E.COLI, Strain/Indicator: WP2UVRA, Metabolic Activation: NONE, Method: GAS EXPOSURE) “inactive; negative”. Besides, the mutagenic call (Test System: E.COLI, Strain/Indicator: WP2UVRA, Metabolic Activation: RAT LIVER S-9, PHENOBARBITAL AND BETA-NAPHTHOFLAVONE (40%), Method: GAS EXPOSURE) is “inactive; negative”.
Take `Cc1cccnc1`: the mutagenic call is “inactive; negative” (Test System: AMES SALMONELLA TYPHIMURIUM, Strain/Indicator: TA97, Metabolic Activation: NONE, Method: STANDARD PLATE); “inactive; negative” (Test System: AMES SALMONELLA TYPHIMURIUM, Strain/Indicator: TA97, Metabolic Activation: RAT, LIVER, S-9, AROCLOR 1254, Method: STANDARD PLATE); “inactive; negative” (Test System: AMES SALMONELLA TYPHIMURIUM, Strain/Indicator: TA98, Metabolic Activation: NONE, Method: STANDARD PLATE); “inactive; negative” under setting [1]; “inactive; negative” under setting [2]; “inactive; negative” under setting [3]. Besides, the mutagenic call is “inactive; negative” (Test System: AMES SALMONELLA TYPHIMURIUM, Strain/Indicator: TA102, Metabolic Activation: NONE, Method: STANDARD PLATE) and “inactive; negative” (Test System: AMES SALMONELLA TYPHIMURIUM, Strain/Indicator: TA102, Metabolic Activation: RAT, LIVER, S-9, AROCLOR 1254, Method: STANDARD PLATE).
Take `CNc1ccc2nccnc2c1C`: the mutagenic call is, setting by setting: (Test System: AMES SALMONELLA TYPHIMURIUM, Strain/Indicator: TA98, Metabolic Activation: NONE, Method: PREINCUBATION) “inactive; negative”; (Test System: AMES SALMONELLA TYPHIMURIUM, Strain/Indicator: TA98, Metabolic Activation: RAT, LIVER, S-9, PCB, Method: PREINCUBATION) “active; positive”; (Test System: AMES SALMONELLA TYPHIMURIUM, Strain/Indicator: TA100, Metabolic Activation: NONE, Method: PREINCUBATION) “inactive; negative”.
As for `O=Cc1c2ccccc2cc2ccccc12`, the mutagenic call is, setting by setting: under setting [1], “inactive; negative”; under setting [2], “inactive; negative”; under setting [3], “inactive; negative”.
